The results in this text go back to BindingDB's records for doi:10.1016/s0960-894x(00)00604-1 (Merck Research Laboratories, 2001).

In general, IC50 refers to the concentration that inhibits the measured activity by half. Read a high IC50 as lower potency.

For this assay, the target named is Histone deacetylase (Eimeria tenella). Description: Inhibitory activity against histone deacetylase (HDAC) from partially purified extracts of Eimeria tenella protozoal cells.

As to `CCCCCCCC[C@@H]1NC(=O)[C@H]2CCCCN2CC(=O)[C@H]([C@@H](C)CC)NC(=O)[C@H](Cc2cn(OC)c3ccccc23)NC1=O`, it took 300 nM to reach half-maximal inhibition (IC50).
For `CC[C@H](C)[C@@H]1NC(=O)[C@H](Cc2cn(OC)c3ccccc23)NC(=O)[C@H](CCCCCC(=O)C2CO2)NC(=O)[C@H]2CCCCN2CC1=O` (some centres not stated) the value was 1 nM.
For `CCC(=O)CCCCC[C@@H]1NC(=O)[C@H]2CCCCN2CC(=O)[C@H]([C@@H](C)CC)NC(=S)[C@H](Cc2cn(OC)c3ccccc23)NC1=O` the value was 210 nM; for `CC[C@H](C)[C@@H]1NC(=O)[C@H](Cc2cn(OC)c3ccccc23)NC(=O)[C@H](CCCCCP(=O)(OC)OC)NC(=O)[C@H]2CCCCN2CC1=O`, 850 nM.
`CC[C@H](C)[C@@H]1NC(=O)[C@H](Cc2cn(OC)c3ccccc23)NC(=O)[C@H](CCCCCC(=O)C(C)O)NC(=O)[C@H]2CCCCN2CC1=O` (some centres not stated) showed an IC50 of 4 nM.
As for `CC[C@H](C)[C@@H]1NC(=O)[C@H](Cc2cn(OC)c3ccccc23)NC(=O)[C@H](CCCCCC(=O)OC)NC(=O)[C@H]2CCCCN2CC1=O`, the figure is 0.8 nM.
As for `CC[C@H](C)[C@@H]1NC(=O)[C@H](Cc2cn(OC)c3ccccc23)NC(=O)[C@H](CCCCCC(=O)O)NC(=O)[C@H]2CCCCN2CC1=O`, the figure is 30 nM.
